US8329861B2, “Protein KTPAF50” (Two To Biotech Ltd., priority 2007, dated 2012)

What was measured:
[1] = test system: human peripheral white blood cells (pWBC); assay: Cytokine secretion from PHA-cultured human peripheral white blood cells treated with KTPAF50 (ELISA); format: cell-based; settings: pWBC in PHA containing medium, treated for 3 days
Protocol: In order to determine the potential effect of KTPAF50 on various diseases, KTPAF50 was incubated with human peripheral white blood cells (pWBC), and the amounts of a panel of cytokines were measured.
Total human white blood cells were cultured in PHA containing medium (Biological Industries INC—catalogue number—01-201-1) (2 million cells/well in 2 ml medium). The control cells were not treated.
At day 3 medium was harvested and subjected to ELISA analysis, using e-Bioscience kits for human IL-17 (catalogue number: 88-7176), human INF-γ (catalogue number: 88-7316) and human TNF-α (catalogue number: 88-7346. The results are summarized in FIGS. 1, 2 and 3.

[2] = test system: U937 acute myeloid leukemia cells; assay: Viable cell detection with Resazurin, U937 cells; format: cell-based; settings: incubated one day, FIG. 4
Protocol: (§1) U937 acute myeloid leukemia cells and PC3 prostate cancer cells were each grown in 10% FCS+RPMI medium and quadruplicates were inoculated into a 96 well plate, 20,000 cells/well.
(§2) KTPAF50 was incubated with the cells for one day, and viable cells were detected using Resazurin (R&D System) and a spectrophotometer.
In order to determine whether the entire KTPAF50 peptide is required for activity, the experiment described in Example III above, using U937 cells, was repeated with the complete KTPAF50 peptide and fragments thereof.

[3] = test system: PC3 prostate cancer cells; assay: Viable cell detection with Resazurin, PC3 cells; format: cell-based; settings: incubated one day, FIG. 4
Protocol: as §1, §2

U937 cells = assay: U937 tumor growth in athymic nude mice; format: in vivo; settings: nude mice inoculated s.c. with 15×10^6 U937 cells, 25 ug/mouse injected from day 9, versus saline control; FIG. 6
Protocol: 14 athymic nude female 8-9 week-old mice were purchased from Harlan Biotech, Israel. The mice were inoculated s.c. with 15×10^6 U937 cells. Tumors began to grow, and at day 9 the mice were divided into 2 groups: • A control group which was injected with saline. • A treated group which was injected with KTPAF50 (25 ug/mouse)
At day 20, 4 mice from the control group were sacrificed due to ethical reasons because they had huge tumors.

KTPAF50: KTPAF50 peptide devoid of the signal sequence, 50 amino acids: LRRREQAERGSRRCAIAGEERAMLSPSPLPETPFSPEKGAAFSPIYPRRK; chemically synthesized by Anaspec (listed as Homo sapiens)
secretion of IL-17 ([1]; FIG. 1): stimulated the pWBC to secrete all three cytokines measured
secretion of INF-γ ([1]; FIG. 2): stimulated the pWBC to secrete all three cytokines measured
secretion of TNF-α ([1]; FIG. 3): stimulated the pWBC to secrete all three cytokines measured
viable cells (normalized to the control amount) [2]: significant decrease in viable cells
viable cells (normalized to the control amount) [3]: significant decrease in viable cells
U937 tumor volume / tumor growth (U937 cells): totally prevented tumor growth
